Biological target: T1, Adenosine receptor A3 (Homo sapiens, UniProt P0DMS8)
T1 sequence (P0DMS8 whole entry): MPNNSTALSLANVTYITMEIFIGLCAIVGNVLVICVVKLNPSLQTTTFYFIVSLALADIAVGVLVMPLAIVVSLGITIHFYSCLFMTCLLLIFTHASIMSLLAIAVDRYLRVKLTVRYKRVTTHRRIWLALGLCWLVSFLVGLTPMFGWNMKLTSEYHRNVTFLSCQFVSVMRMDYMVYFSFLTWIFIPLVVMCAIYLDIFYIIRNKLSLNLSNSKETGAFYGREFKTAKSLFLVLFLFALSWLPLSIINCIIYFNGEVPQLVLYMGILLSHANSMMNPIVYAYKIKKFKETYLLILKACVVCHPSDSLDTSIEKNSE
Description: Binding affinity for human adenosine A3 receptor

Ki | Compound
0.811 µM | CC(C)=CCn1cc2c(nc(N)n3nc(-c4ccco4)nc23)n1
0.00448 µM | CCCCCCCCn1cc2c(nc(NC(=O)Nc3ccc(C)cc3)n3nc(-c4ccco4)nc23)n1
0.0049 µM | CC(C)(C)NC(=O)Nc1nc2nn(CCc3ccccc3)cc2c2nc(-c3ccco3)nn12
0.039 µM | CC(C)CCn1cc2c(nc(NC(=O)NC(C)(C)C)n3nc(-c4ccco4)nc23)n1
0.00741 µM | Cc1ccc(NC(=O)Nc2nc3nn(CCC(C)C)cc3c3nc(-c4ccco4)nn23)cc1
0.00082 µM | CCOC(=O)Cc1ccc(NC(=O)Nc2nc3nn(C)cc3c3nc(-c4ccco4)nn23)cc1
0.0067 µM | O=C(Nc1nc2nn(CC3CCCCC3)cc2c2nc(-c3ccco3)nn12)NC1CCCCC1
0.163 µM | NCC(=O)Nc1nc2nn(CCc3ccccc3)cc2c2nc(-c3ccco3)nn12
0.00783 µM | CCCCCCCCn1cc2c(nc(NC(=O)NCCCCC)n3nc(-c4ccco4)nc23)n1
0.09 µM | CC(C)CCn1cc2c(nc(NC(=O)CCCN)n3nc(-c4ccco4)nc23)n1
0.065 µM | CC(C)(C)NC(=O)Nc1nc2nn(CCCc3ccccc3)cc2c2nc(-c3ccco3)nn12
0.00997 µM | CCCCCCCCn1cc2c(nc(NC(=O)Nc3ccc(CC(=O)OCC)cc3)n3nc(-c4ccco4)nc23)n1
0.00398 µM | CCCCCNC(=O)Nc1nc2nn(CC3CCCCC3)cc2c2nc(-c3ccco3)nn12
0.00695 µM | CCOC(=O)Cc1ccc(NC(=O)Nc2nc3nn(CC4CCCCC4)cc3c3nc(-c4ccco4)nn23)cc1
1.72 µM | Nc1nc2nn(CC3CCCCC3)cc2c2nc(-c3ccco3)nn12
0.065 µM | CC(C)CCn1cc2c(nc(NC(=O)NC(C)C)n3nc(-c4ccco4)nc23)n1

Ki | Compound
0.0163 µM | CCCCCCCCn1cc2c(nc(NC(=O)NC3CCCCC3)n3nc(-c4ccco4)nc23)n1
0.015 µM | CCCn1cc2c(nc(NC(=O)NC(C)(C)C)n3nc(-c4ccco4)nc23)n1
0.00594 µM | Cc1ccc(NC(=O)Nc2nc3nn(CC4CCCCC4)cc3c3nc(-c4ccco4)nn23)cc1
1.48 µM | CC(C)(C)OC(=O)NCCCC(=O)Nc1nc2nn(CCc3ccccc3)cc2c2nc(-c3ccco3)nn12
2.05 µM | CCCCCCCCn1cc2c(nc(N)n3nc(-c4ccco4)nc23)n1
0.0205 µM | CC(C)CCn1cc2c(nc(NC(=O)NC3CCCCC3)n3nc(-c4ccco4)nc23)n1
0.009 µM | CC(C)NC(=O)Nc1nc2nn(CCc3ccccc3)cc2c2nc(-c3ccco3)nn12
0.00195 µM | CCCCCNC(=O)Nc1nc2nn(C)cc2c2nc(-c3ccco3)nn12
0.00809 µM | CCCCCNC(=O)Nc1nc2nn(CCC(C)C)cc2c2nc(-c3ccco3)nn12
0.065 µM | NCCCC(=O)Nc1nc2nn(CCc3ccccc3)cc2c2nc(-c3ccco3)nn12
0.08 µM | NCCC(=O)Nc1nc2nn(CCc3ccccc3)cc2c2nc(-c3ccco3)nn12
0.0119 µM | CCOC(=O)Cc1ccc(NC(=O)Nc2nc3nn(CCC(C)C)cc3c3nc(-c4ccco4)nn23)cc1
0.055 µM | CC(C)NC(=O)Nc1nc2nn(CCCc3ccccc3)cc2c2nc(-c3ccco3)nn12
2.49 µM | CC(C)CCn1cc2c(nc(NC(=O)CCCNC(=O)OC(C)(C)C)n3nc(-c4ccco4)nc23)n1
0.021 µM | CCCn1cc2c(nc(NC(=O)NC(C)C)n3nc(-c4ccco4)nc23)n1
